Reference: patent US6232318A, “Pyrimidinedione derivatives useful as alpha 1A adrenoceptor antagonists” (Merck & Co., Ltd., priority 1999, dated 2001)
pKi: −log10 of the molar value.

Legend:
[1] = system: human alpha 1d and alpha 1b adrenergic receptors; assay: Selective binding assays: alpha 1d and alpha 1b membranes ([125I]-HEAT competition), compared with alpha 1a; conditions: alpha 1a vs alpha 1b and alpha 1d, ratio
Procedure: Membranes prepared from stably transfected human alpha 1d and alpha 1b cell lines (ATCC CRL 11138 and CRL 11139, respectively) were used to identify compounds that selectively bind to the human alpha 1a adrenergic receptor. These competition binding reactions (total volume=200 μl) contained 50 mM Tris-HCl pH. 7.4, 5 mM EDTA, 150 mM NaCl, 100 pM [^125 I]-HEAT, membranes prepared from cell lines transfected with the respective alpha 1 subtype expression plasmid and increasing amounts of unlabeled ligand. Reactions were incubated at room temperature for one hour with shaking. Reactions were filtered onto Whatman GF/C glass fiber filters with a Inotec 96 well cell harvester. Filters were washed three times with ice cold buffer and bound radioactivity was determined (Ki).

[2] = molecular target: T1, human alpha 1a adrenergic receptor (Homo sapiens, UniProt P35348); assay: Screening assay: alpha 1a adrenergic receptor binding ([125I]-HEAT competition, membranes of stably transfected cell line); conditions: for pKi: room temperature, 1 h, pH 7.4
T1 sequence (P35348 1-466): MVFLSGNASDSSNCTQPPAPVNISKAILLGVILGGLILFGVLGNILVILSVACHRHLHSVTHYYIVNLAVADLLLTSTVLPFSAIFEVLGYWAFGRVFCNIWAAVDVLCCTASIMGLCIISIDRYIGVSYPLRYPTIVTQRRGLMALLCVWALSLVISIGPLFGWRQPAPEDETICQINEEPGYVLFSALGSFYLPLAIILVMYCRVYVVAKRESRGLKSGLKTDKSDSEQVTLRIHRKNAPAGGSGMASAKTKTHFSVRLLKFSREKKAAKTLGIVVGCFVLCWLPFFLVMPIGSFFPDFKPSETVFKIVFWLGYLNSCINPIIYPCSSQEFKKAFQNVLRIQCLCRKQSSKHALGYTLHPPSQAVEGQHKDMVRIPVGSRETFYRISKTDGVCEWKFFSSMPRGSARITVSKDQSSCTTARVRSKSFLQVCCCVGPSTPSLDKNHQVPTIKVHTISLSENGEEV
Procedure: Screening Assay: Alpha 1a Adrenergic Receptor Binding
Membranes prepared from the stably transfected human alpha 1a cell line (ATCC CRL 11140) were used to identify compounds that bind to the human alpha 1a adrenergic receptor. These competition binding reactions (total volume=200 μl) contained 50 mM Tris-HCl pH. 7.4, 5 mM EDTA, 150 mM NaCl, 100 pM [^125 I]-HEAT, membranes prepared from the alpha 1a cell line and increasing amounts of unlabeled ligand. Reactions were incubated at room temperature for one hour with shaking. Reactions were filtered onto Whatman GF/C glass fiber filters with a Inotec 96 well cell harvester. Filters were washed three times with ice cold buffer and bound radioactivity was determined (Ki).

Row | SMILES | selectivity in binding to alpha 1a receptors versus binding to alpha 1b and alpha 1d receptors [1] [fold] | pKi [2] | Ki ([2]; value in mM) [mM]
1 | Cc1cn(Cc2ccccc2)c(=O)n(CCCN[C@H]2CC[C@@](C#N)(c3ccccc3)CC2)c1=O [Example 6, trans-4-[3-(3-Benzyl-5-methyl-2,6-dioxo-3,6-dihydro-2H-pyrimidin-1-yl)propylamino]-1-phenylcyclohexanecarbonitrile] | ≤ 10 | 6.30 | 
2 | Cc1cn(Cc2ccccc2)c(=O)n(CCCN[C@H]2CC[C@@](C#N)(c3cc(F)cc(F)c3)CC2)c1=O [Example 9, cis-4-[3-(3-Benzyl-5-methyl-2,6-dioxo-3,6-dihydro-2H-pyrimidin-1-yl)propylamino]-1-(3,5-difluorophenyl)cyclohexanecarbonitrile] | ≤ 10 |  | 0.000115
3 | Cc1ccccc1C1(C#N)CCN(CCCn2c(=O)c(C)cn(Cc3ccccc3)c2=O)CC1 [Example 2, 1-[3-(3-Benzyl-5-methyl-2,6-dioxo-3,6-dihydro-2H-pyrimidin-1-yl)propyl]-4-ortho-tolylpiperidine-4-carbonitrile] | ≤ 10 |  | 
4 | Cc1cn(Cc2ccccc2)c(=O)n(CCCN2CCC(c3ccc(F)cc3)CC2)c1=O [Example 1, 1-Benzyl-3-{3-[4-(4-fluorophenyl)piperidin-1-yl]propyl}-5-methyl-1H-pyrimidine-2,4-dione] | ≤ 10 |  | 
5 | Cc1cn(Cc2ccccc2)c(=O)n(CCCN[C@H]2CC[C@](C#N)(c3ccc(F)cc3F)CC2)c1=O [Example 4, cis-4-[3-(3-Benzyl-5-methyl-2,6-dioxo-3,6-dihydro-2H-pyrimidin-1-yl)propylamino]-1-(2,4-difluorophenyl)cyclohexanecarbonitrile] | ≤ 10 |  | 

Other lines, results leading:

Row | selectivity in binding to alpha 1a receptors versus binding to alpha 1b and alpha 1d receptors [1] [fold] | pKi [2] | Ki ([2]; value in mM) [mM] | SMILES
6 | ≤ 10 |  |  | COc1ccccc1[C@H]1CC[C@H](NCCCn2c(=O)c(C)cn(Cc3ccccc3)c2=O)CC1 [Example 17, trans-1-Benzyl-3-{3-[4-(2-methoxyphenyl)cyclohexylamino]propyl}-5-methyl-1H-pyrimidine-2,4-dione]
7 | ≤ 10 |  |  | Cc1c[nH]c(=O)n(CCCN[C@H]2CC[C@](C#N)(c3ccccc3)CC2)c1=O [Example 20, cis4-[3-(5-Methyl-2,6-dioxo-3,6-dihydro-2H-pyrimidin-1-yl)propylamino]-1-phenylcyclohexanecarbonitrile]
8 | ≤ 10 | 6.12 |  | Cc1c[nH]c(=O)n(CCCN[C@H]2CC[C@@](C#N)(c3ccccc3)CC2)c1=O [Example 21, trans-4-[3-(5-Methyl-2,6-dioxo-3,6-dihydro-2H-pyrimidin-1-yl)propylamino]-1-phenylcyclohexanecarbonitrile]
9 | ≤ 10 | 6.10 |  | Cc1cn(CCCN[C@H]2CC[C@](C#N)(c3ccccc3C#N)CC2)c(=O)n(Cc2ccccc2)c1=O [Example 26, trans-2-{4-[3-(3-Benzyl-5-methyl-2,4-dioxo-3,4-dihydro-2H-pyrimidin-1-yl)propylamino]-1-cyanocyclohexyl}benzonitrile]
